In the OligoGym collection one finds remaining target (mRNA or protein) (fraction of control) data, which are given here for 119 sequences.

These antisense oligonucleotides have a phosphorothioate backbone; sugars and methylation of C are not fully specified.
Also: test concentration or dose not given here.

In the first data set the target is GNA11. The settings on record: ASO.
For AGATGATGTTCTCCAGGT, the remaining target (mRNA or protein) (fraction of control) is at least 1. AGGGCTTTGCTCTCCTCC returned a remaining target (mRNA or protein) (fraction of control) of 0.23. For the sequence ATCCGCTTGGACTCCTTC, the remaining target (mRNA or protein) (fraction of control) was 0.83. Same read-out and setting: the value for ATCCGGAAGATGATGTTC was at least 1; that for ATCCGGTTCTCGTTGTCC was 0.78; that for ATCTGCTTGATGAACGTG was at least 1. Still for that read-out and setting: to ATCTTGTCCTCCAGCAGG belongs 0.96; to ATGATGGATGTCACGTTC, at least 1; to ATGTTCTCCGTGTCGGTG, at least 1.

CACGCCATGATGGACTCC: the remaining target (mRNA or protein) (fraction of control) is at least 1. As for CACGTGAAGTGTGAGTAG, the remaining target (mRNA or protein) (fraction of control) was at least 1. With CAGGAGCGCATTGGCCTT, the remaining target (mRNA or protein) (fraction of control) is at least 1.

CAGGGTCTTGATGGCACT showed a remaining target (mRNA or protein) (fraction of control) of at least 1. For the sequence CCAGGTCGAAAGGGTACT, the remaining target (mRNA or protein) (fraction of control) is at least 1. Consider CCATCCGGTTCTCGTTGT, for which the remaining target (mRNA or protein) (fraction of control) is 0.81.

Regarding CCCGCCGCAGCTGCTTCT, the remaining target (mRNA or protein) (fraction of control) was determined as 0.42. The same measure, in the same setting: the value for CGACTCCACCAGGACTTG was 0.6. In the case of CGAGAAACATGATGGATG, the remaining target (mRNA or protein) (fraction of control) was at least 1. The sequence CGCATCTGCTTGATGAAC registered a remaining target (mRNA or protein) (fraction of control) of at least 1. As to CGCCTGCGGTCGTAGCAT, the remaining target (mRNA or protein) (fraction of control) is at least 1. For CGGATCATGGCCTGCATG, the remaining target (mRNA or protein) (fraction of control) amounted to 0.99. The sequence CGTCCTGCTGGGTGGGCA had a remaining target (mRNA or protein) (fraction of control) of 0.6.

CGTCTCCATGGCCCGGAT: the remaining target (mRNA or protein) (fraction of control) was determined as 0.51. As to CGTTGATCCGCTTGGACT, the remaining target (mRNA or protein) (fraction of control) is at least 1.

In turn, CTCATCGCTCAGGCAACA yielded a remaining target (mRNA or protein) (fraction of control) of 0.39.

Consider CTCCACGTCCACCTCCCG, for which the remaining target (mRNA or protein) (fraction of control) came to 0.31. Regarding CTCCGCTCCGACCGCTGG, the remaining target (mRNA or protein) (fraction of control) stood at 0.44. CTCGATCTCGGCGTTGAT came in with a remaining target (mRNA or protein) (fraction of control) of at least 1. Sequence CTGGATGCCCGGGTCCTC displayed a remaining target (mRNA or protein) (fraction of control) of at least 1.

CTTCACCTCATCGCTCAG: the remaining target (mRNA or protein) (fraction of control) is 0.8.

With CTTGAGCTCGCGCCGGGC, the remaining target (mRNA or protein) (fraction of control) was 0.69.

Consider CTTGATGGCACTGACGTA, for which the remaining target (mRNA or protein) (fraction of control) is 0.22. The sequence CTTGTCCTCCTCCGAGTA had a remaining target (mRNA or protein) (fraction of control) of 0.21. GACTCCTTCACCTCATCG: the remaining target (mRNA or protein) (fraction of control) came out at 0.85. GATCCACTTCCTCCGCTC came in with a remaining target (mRNA or protein) (fraction of control) of 0.41. GATGAACTCCCGCGCCGC gave a remaining target (mRNA or protein) (fraction of control) of 0.48.

GATGCTCGAAGGTGGTCA returned a remaining target (mRNA or protein) (fraction of control) of 0.67. The sequence GATGGACTCCAGAGTCAT displayed a remaining target (mRNA or protein) (fraction of control) of at least 1. Same read-out and setting: the value for GATGGTGTCCTTCACGGC was at least 1; that for GCAGCAGCAGCTTGAGCT was at least 1.

The sequence GCAGGTAGCCCAAGGTGG returned a remaining target (mRNA or protein) (fraction of control) of 0.8. With GCAGGTCCTTCTTGTTGA, the remaining target (mRNA or protein) (fraction of control) worked out at 0.94. The same measure, in the same setting: the value for GCCATGATGGACTCCAGA was 0.25; that for GCCCGTGCCGAGCAGCAG was at least 1.

In the case of GCCTTGTTCTGCTCGTAC, the remaining target (mRNA or protein) (fraction of control) is 0.75. In turn, GCGAGTACAGGATCTTGT showed a remaining target (mRNA or protein) (fraction of control) of 0.83. Sequence GCTGAGGGCGACGAGAAA registered a remaining target (mRNA or protein) (fraction of control) of 0.25. Consider GCTGGTACTCGCGCCTGC, for which the remaining target (mRNA or protein) (fraction of control) stood at 0.59. Sequence GGAGGAGTTCTGGAACCA returned a remaining target (mRNA or protein) (fraction of control) of 0.36. In the case of GGTCAACGTCGGTCAGGT, the remaining target (mRNA or protein) (fraction of control) turned out to be 0.82. On the same count and under the same terms, to GGTCACCTTCTCCACGTC belongs 0.73; to GGTCCGGAACAGGGCTTT, 0.74; to GGTGGTGGGCACGCGGAC, at least 1. The same measure, in the same setting: the value for GGTTCAGGTCCACGAACA was 0.29. GTAGATGATCTTGTCGCT: the remaining target (mRNA or protein) (fraction of control) is at least 1.

GTAGCCGGCGCCGTGGAT had a remaining target (mRNA or protein) (fraction of control) of 0.99. GTAGGTGATGATGGTCCG had a remaining target (mRNA or protein) (fraction of control) of at least 1.

Sequence GTCAGGTAGTACTTGGCA showed a remaining target (mRNA or protein) (fraction of control) of 0.24. Consider GTGGCGATGCGGTCAACG, for which the remaining target (mRNA or protein) (fraction of control) came to 0.99.

Turning to TACTTGGCAGAGTCGGAG, the remaining target (mRNA or protein) (fraction of control) came to 0.66. Turning to TAGACGAGCTTGGTGAAG, the remaining target (mRNA or protein) (fraction of control) was at least 1. Sequence TAGAGGATCTTGAGCGTC gave a remaining target (mRNA or protein) (fraction of control) of at least 1. Still for that read-out and setting: to TCAGGTTCAGCTGCAGGA belongs 0.97; to TCCTGGATGCCCGGGTCC, 0.7; to TCGATGATGCCGGTGGTG, at least 1.

In turn, TGAGGAAGAGGATGACGG had a remaining target (mRNA or protein) (fraction of control) of at least 1. TGCTCGTACTTGTAGAGG had a remaining target (mRNA or protein) (fraction of control) of 0.93.

The sequence TGGCGGTGAAGATGTTCT registered a remaining target (mRNA or protein) (fraction of control) of at least 1. TGTAGAGGATCTTGAGCG: the remaining target (mRNA or protein) (fraction of control) was at least 1. Still for that read-out and setting: to TGTCACGTTCTCAAAGCA belongs at least 1.

TGTCCTCCTCCGAGTAGC had a remaining target (mRNA or protein) (fraction of control) of at least 1. For the sequence TGTTCTCCAGGTCGAAAG, the remaining target (mRNA or protein) (fraction of control) came to 0.67. For TGTTCTGGTAGACGAGCT, the remaining target (mRNA or protein) (fraction of control) is at least 1. Same read-out and setting: the value for TTGGCCTTGTTCTGCTCG was at least 1.

The next data set concerns the target TRADD. As to conditions: ASO.
The sequence AAACTGTAAGGGCTGGCT yielded a remaining target (mRNA or protein) (fraction of control) of 0.91. With AAAGATCAAGGTGCTTCA, the remaining target (mRNA or protein) (fraction of control) is at least 1. For the sequence AAAGTCTGGGCAGGTGGC, the remaining target (mRNA or protein) (fraction of control) was 0.56. In turn, AAGGTGAGGCTGATCTCC had a remaining target (mRNA or protein) (fraction of control) of 0.72. Same read-out and setting: to AATAGCCGCAGAAGGAAC belongs 0.83. On to ACCCTAAGGCCATCCAGG, for which the remaining target (mRNA or protein) (fraction of control) amounted to 0.64.

As for ACTTTATTATCATTGCTT, the remaining target (mRNA or protein) (fraction of control) was found to be 0.66. On to AGATTTCGCAGCGCATCC, for which the remaining target (mRNA or protein) (fraction of control) is at least 1. Regarding AGCGGCACCGAGTGCTGG, the remaining target (mRNA or protein) (fraction of control) was at least 1.

AGCTCCAGTTGCAGCGGC yielded a remaining target (mRNA or protein) (fraction of control) of 0.82.

With AGCTGCCATCTCACCTCC, the remaining target (mRNA or protein) (fraction of control) is at least 1.

For the sequence AGTGAGCGCCCCACCTTG, the remaining target (mRNA or protein) (fraction of control) turned out to be 0.98. The sequence AGTGCTGGGCGAGCGCGG registered a remaining target (mRNA or protein) (fraction of control) of at least 1.

For the sequence AGTTGCAGCGGCACCGAG, the remaining target (mRNA or protein) (fraction of control) was at least 1.

For the sequence ATGAAGTCCAGGACACCA, the remaining target (mRNA or protein) (fraction of control) is at least 1.

The sequence CAAGATTGATTCCTGTTT registered a remaining target (mRNA or protein) (fraction of control) of 0.94.

CACCCACTCTTCGTGCCC showed a remaining target (mRNA or protein) (fraction of control) of at least 1. CAGCGCCCGGCAGCCTCG: the remaining target (mRNA or protein) (fraction of control) is at least 1. In the case of CAGGCCGCCATTGGGATC, the remaining target (mRNA or protein) (fraction of control) is at least 1. The same measure, in the same setting: the value for CATTTGAGACCCACAGAG was 0.83; that for CCACCTTGTCCAGCGAGG was 0.59; that for CCACGCTGAGTGTGAGCT was 0.68. In the case of CCCACCCCACACTCTATC, the remaining target (mRNA or protein) (fraction of control) turned out to be 0.47. The same measure, in the same setting: to CCCAGCAAGTCCTCTGCC belongs 0.75; to CCCCGAGCCGCACTTCAG, 0.77; to CCCGCCGCTCTCTGCCAA, at least 1. For the sequence CCCTCGCGCTCGTACTCG, the remaining target (mRNA or protein) (fraction of control) is 0.42. Regarding CCGAAGCGACCTCCCCGT, the remaining target (mRNA or protein) (fraction of control) was at least 1. Take CCGACAGAGAGGGCACCG: the remaining target (mRNA or protein) (fraction of control) is at least 1. Still for that read-out and setting: to CCGTGTTATACTTTATTA belongs at least 1; to CGATTCACTACAGGCTGA, 0.86; to CGCAGCGCATCCTCCAGC, 0.99. The same measure, in the same setting: the value for CGGTCGGGCTGCTGGGCT was at least 1. With CGTAGGCCAGCGAGTCCA, the remaining target (mRNA or protein) (fraction of control) was at least 1. Take CTCACCTCCTGGCCGCCT: the remaining target (mRNA or protein) (fraction of control) stood at 0.76. For CTCTTCGTGCCCATTTTG, the remaining target (mRNA or protein) (fraction of control) is 0.89.

Take CTGTTTTACTTCACTGCA: the remaining target (mRNA or protein) (fraction of control) is at least 1. In turn, CTTGCGCCATTTGAGACC came in with a remaining target (mRNA or protein) (fraction of control) of 0.7. For GACCCTGGAACAGAAAAG, the remaining target (mRNA or protein) (fraction of control) came to 0.9.

Regarding GAGGACTCCACAAACAGG, the remaining target (mRNA or protein) (fraction of control) turned out to be 0.93. The same measure, in the same setting: to GAGGCAGAATCCCCAATG belongs at least 1; to GAGTCCAGCGCCGGGTCC, 0.48. In the case of GATGCAACTCAAACAGCG, the remaining target (mRNA or protein) (fraction of control) is at least 1. Turning to GCACGAAGCGCCGCAGCA, the remaining target (mRNA or protein) (fraction of control) was at least 1. Sequence GCAGGTCCAGCAGATAGG registered a remaining target (mRNA or protein) (fraction of control) of 0.9.
